Measurements from the NIST ThermoML archive (doi:10.1021/acs.jced.7b00802).
± gives the expanded uncertainty stated by the source.

Details: Liquid, Ebulliometric method (Recirculating still)

## COCCOC [1,2-dimethoxyethane]
357.75 K
  vapor or sublimation pressure: 101.3 ± 0.8 kPa

## CCCCCC [hexane]
341.88 K
  vapor or sublimation pressure: 101.3 ± 0.8 kPa

## CC1CCCC1 [methylcyclopentane]
344.96 K
  vapor or sublimation pressure: 101.3 ± 0.8 kPa
